Test results reported in patent US7811797B2, “α-isomaltosylglucosaccharide-forming enzyme, process and uses of the same” (Kabushiki Kaisha Hayashibara Seibutsu Kagaku Kenkyujo, priority 2000, dated 2010).

Key:
Set-up in all cases: key: −: no saccharide-transferred product was detected through transfer reaction to acceptor; ∀: a saccharide-transferred product was detected in an amount less than one percent through transfer reaction to acceptor; +: a saccharide-transferred product was detected in an amount over one percent but less than ten percent through transfer reaction to acceptor; ++: a saccharide-transferred product was detected in an amount over ten percent through transfer reaction to acceptor
[1] = tested on: α-isomaltosylglucosaccharide-forming enzyme; test: Transfer-acceptor specificity, Enzyme of Strain N75; format: biochemical, Bacillus globisporus N75; conditions: acceptor 1.6%, PINE-DEX #100 donor 4%, one unit/g donor, 30° C., pH 6.0, 24 hours
Experimental: (§1) Using different saccharides, it was tested whether the saccharides were used as transferring-acceptors for the α-isomaltosylglucosaccharide-forming enzyme of the present invention. A solution of D-glucose, D-xylose, L-xylose, D-galactose, D-fructose, D-mannose, D-arabinose, D-fucose, D-psicose, L-sorbose, L-rhamnose, methyl-α-glucopyranoside, methyl-β-glucopyranoside, N-acetyl-glucosamine, sorbitol, trehalose, isomaltose, isomaltotriose, cellobiose, gentibiose, glycerol, maltitol, lactose, sucrose, α-cyclodextrin, β-cyclodextrin, γ-cyclodextrin, or L-ascorbic acid was prepared.
(§2) To each solution with a saccharide concentration of 1.6% was added “PINE-DEX #100”, a partial starch hydrolysate, as a saccharide donor, to give a concentration of 4%, and admixed with one unit/g saccharide donor, d.s.b., of either of purified specimens of α-isomaltosylglucosaccharide-forming enzyme from Bacillus globisporus C9 obtained by the method in Experiment 4-2, Bacillus globisporus C11 obtained by the method in Experiment 7-2, Bacillus globisporus N75 obtained by the method in Experiment 11-2, or Arthrobacter globiformis A19 obtained by the method in Experiment 15-2, and incubated at 30° C. and pH 6.0, except that pH 8.4 was used for the enzyme from Arthrobacter globiformis A19, for 24 hours. The reaction mixtures of the post-enzymatic reactions were analyzed on gas chromatography (abbreviated as “GLC” hereinafter) for monosaccharides and disaccharides as acceptors, and on HPLC for trisaccharides as acceptors to confirm whether these saccharides could be used as their transfer acceptors. In the case of performing GLC, the following apparatuses and conditions are used: GLC apparatus, “GC-16A” commercialized by Shimadzu Corporation, Tokyo, Japan; column, a stainless-steel column, 3 mm in diameter and 2 m in length, packed with 2% “SILICONE OV-17/[…]”, commercialized by GL Sciences Inc., Tokyo, Japan; carrier gas, nitrogen gas at a flow rate of 40 ml/min under temperature conditions of increasing from 160° C. to 320° C. at an increasing temperature rate of 7.5° C./min; and detection, a hydrogen flame ionization detector. In the case of HPLC analysis, the apparatuses and conditions used are: HPLC apparatus, “CCPD” commercialized by Tosoh Corporation, Tokyo, Japan; column, “ODS-AQ-303” commercialized by YMC Co., Ltd., Tokyo, Japan; eluent, water at a flow rate of 0.5 ml/min; and detection, a differential refractometer.

[2] = tested on: α-isomaltosylglucosaccharide-forming enzyme; test: Transfer-acceptor specificity, Enzyme of Strain A19; format: biochemical, Arthrobacter globiformis A19; conditions: acceptor 1.6%, PINE-DEX #100 donor 4%, one unit/g donor, 30° C., pH 8.4, 24 hours
Experimental: as §1, §2

[3] = tested on: α-isomaltosylglucosaccharide-forming enzyme; test: Transfer-acceptor specificity, Enzyme of Strain C11; format: biochemical, Bacillus globisporus C11; conditions: acceptor 1.6%, PINE-DEX #100 donor 4%, one unit/g donor, 30° C., pH 6.0, 24 hours
Experimental: as §1, §2

[4] = tested on: α-isomaltosylglucosaccharide-forming enzyme; test: Transfer-acceptor specificity, Enzyme of Strain C9; format: biochemical, Bacillus globisporus C9; conditions: acceptor 1.6%, PINE-DEX #100 donor 4%, one unit/g donor, 30° C., pH 6.0, 24 hours
Experimental: as §1, §2

SMILES	Product of transferring reaction, Enzyme of Strain N75 [1]	Product of transferring reaction, Enzyme of Stain A19 [2]	Product of transferring reaction, Enzyme of Strain C11 [3]	Product of transferring reaction, Enzyme of Strain C9 [4]
O=C[C@@H](O)[C@H](O)[C@H](O)CO [D-Arabinose]	∀ (a saccharide-transferred product was detected in an amount less than one percent through transfer reaction to acceptor)	∀ (a saccharide-transferred product was detected in an amount less than one percent through transfer reaction to acceptor)	∀ (a saccharide-transferred product was detected in an amount less than one percent through transfer reaction to acceptor)	∀ (a saccharide-transferred product was detected in an amount less than one percent through transfer reaction to acceptor)
O=C(CO)[C@@H](O)[C@H](O)[C@H](O)CO [D-Fructose]	+ (a saccharide-transferred product was detected in an amount over one percent but less than ten percent through transfer reaction to acceptor)	+ (a saccharide-transferred product was detected in an amount over one percent but less than ten percent through transfer reaction to acceptor)	+ (a saccharide-transferred product was detected in an amount over one percent but less than ten percent through transfer reaction to acceptor)	+ (a saccharide-transferred product was detected in an amount over one percent but less than ten percent through transfer reaction to acceptor)
C[C@@H](O)[C@H](O)[C@H](O)[C@@H](O)C=O [D-Fucose]	+ (a saccharide-transferred product was detected in an amount over one percent but less than ten percent through transfer reaction to acceptor)	∀ (a saccharide-transferred product was detected in an amount less than one percent through transfer reaction to acceptor)	+ (a saccharide-transferred product was detected in an amount over one percent but less than ten percent through transfer reaction to acceptor)	+ (a saccharide-transferred product was detected in an amount over one percent but less than ten percent through transfer reaction to acceptor)
O=C[C@H](O)[C@@H](O)[C@@H](O)[C@H](O)CO [D-Galactose]	+ (a saccharide-transferred product was detected in an amount over one percent but less than ten percent through transfer reaction to acceptor)	∀ (a saccharide-transferred product was detected in an amount less than one percent through transfer reaction to acceptor)	+ (a saccharide-transferred product was detected in an amount over one percent but less than ten percent through transfer reaction to acceptor)	+ (a saccharide-transferred product was detected in an amount over one percent but less than ten percent through transfer reaction to acceptor)
O=C[C@H](O)[C@@H](O)[C@H](O)[C@H](O)CO [D-Glucose, reference compound]	+ (a saccharide-transferred product was detected in an amount over one percent but less than ten percent through transfer reaction to acceptor)	+ (a saccharide-transferred product was detected in an amount over one percent but less than ten percent through transfer reaction to acceptor)	+ (a saccharide-transferred product was detected in an amount over one percent but less than ten percent through transfer reaction to acceptor)	+ (a saccharide-transferred product was detected in an amount over one percent but less than ten percent through transfer reaction to acceptor)
O=C[C@@H](O)[C@@H](O)[C@H](O)[C@H](O)CO [D-Mannose]	−	∀ (a saccharide-transferred product was detected in an amount less than one percent through transfer reaction to acceptor)	−	−
O=C(CO)[C@H](O)[C@H](O)[C@H](O)CO [D-Psicose]	+ (a saccharide-transferred product was detected in an amount over one percent but less than ten percent through transfer reaction to acceptor)	+ (a saccharide-transferred product was detected in an amount over one percent but less than ten percent through transfer reaction to acceptor)	+ (a saccharide-transferred product was detected in an amount over one percent but less than ten percent through transfer reaction to acceptor)	+ (a saccharide-transferred product was detected in an amount over one percent but less than ten percent through transfer reaction to acceptor)
O=C[C@H](O)[C@@H](O)[C@H](O)CO [D-Xylose]	++ (a saccharide-transferred product was detected in an amount over ten percent through transfer reaction to acceptor)	+ (a saccharide-transferred product was detected in an amount over one percent but less than ten percent through transfer reaction to acceptor)	++ (a saccharide-transferred product was detected in an amount over ten percent through transfer reaction to acceptor)	++ (a saccharide-transferred product was detected in an amount over ten percent through transfer reaction to acceptor)
OCC(O)CO [Glycerol]	+ (a saccharide-transferred product was detected in an amount over one percent but less than ten percent through transfer reaction to acceptor)	+ (a saccharide-transferred product was detected in an amount over one percent but less than ten percent through transfer reaction to acceptor)	+ (a saccharide-transferred product was detected in an amount over one percent but less than ten percent through transfer reaction to acceptor)	+ (a saccharide-transferred product was detected in an amount over one percent but less than ten percent through transfer reaction to acceptor)
O=C1O[C@H]([C@@H](O)CO)C(O)=C1O [L-Ascorbic acid]	+ (a saccharide-transferred product was detected in an amount over one percent but less than ten percent through transfer reaction to acceptor)	+ (a saccharide-transferred product was detected in an amount over one percent but less than ten percent through transfer reaction to acceptor)	+ (a saccharide-transferred product was detected in an amount over one percent but less than ten percent through transfer reaction to acceptor)	+ (a saccharide-transferred product was detected in an amount over one percent but less than ten percent through transfer reaction to acceptor)
C[C@H](O)[C@H](O)[C@@H](O)[C@@H](O)C=O [L-Rhamnose]	−	−	−	−
